Key:
[1] = biological target: T1, Solute carrier organic anion transporter family member 1A1 (Rattus norvegicus, UniProt P46720); experiment: TP_TRANSPORTER: inhibition of Pravastatin uptake (Pravastatin: 0.5 uM, BMS243887: 50 uM) in Oatp1-expressing 293c18 cells; type: functional, cell-based; details: human, hek293-ebna
T1 sequence (P46720 whole entry): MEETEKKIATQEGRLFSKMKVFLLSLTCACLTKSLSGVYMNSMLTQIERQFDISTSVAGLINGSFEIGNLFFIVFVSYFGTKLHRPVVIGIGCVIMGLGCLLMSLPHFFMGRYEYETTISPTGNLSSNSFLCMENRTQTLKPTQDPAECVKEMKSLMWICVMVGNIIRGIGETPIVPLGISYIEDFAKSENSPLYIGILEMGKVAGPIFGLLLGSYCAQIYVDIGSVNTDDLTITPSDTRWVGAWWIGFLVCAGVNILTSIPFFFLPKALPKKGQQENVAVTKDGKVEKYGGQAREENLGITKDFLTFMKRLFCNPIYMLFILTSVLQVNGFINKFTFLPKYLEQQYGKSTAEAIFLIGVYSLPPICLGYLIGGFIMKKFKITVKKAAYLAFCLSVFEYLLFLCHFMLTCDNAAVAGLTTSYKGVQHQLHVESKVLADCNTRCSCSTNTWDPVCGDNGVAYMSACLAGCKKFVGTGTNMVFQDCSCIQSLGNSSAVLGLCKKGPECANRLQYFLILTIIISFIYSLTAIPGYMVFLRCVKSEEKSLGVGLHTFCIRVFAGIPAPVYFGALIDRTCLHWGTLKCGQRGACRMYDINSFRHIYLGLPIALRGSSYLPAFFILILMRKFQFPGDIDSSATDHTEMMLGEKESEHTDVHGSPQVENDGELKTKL

[2] = biological target: T2, Solute carrier organic anion transporter family member 1B1 (Homo sapiens, UniProt Q9Y6L6); experiment: TP_TRANSPORTER: inhibition of Taurocholate uptake (Taurocholate: 0.5 uM, BMS243887: 50 uM) in OATP-C-expressing 293c18 cells; type: functional, cell-based; details: hek293-ebna
T2 sequence (Q9Y6L6 whole entry): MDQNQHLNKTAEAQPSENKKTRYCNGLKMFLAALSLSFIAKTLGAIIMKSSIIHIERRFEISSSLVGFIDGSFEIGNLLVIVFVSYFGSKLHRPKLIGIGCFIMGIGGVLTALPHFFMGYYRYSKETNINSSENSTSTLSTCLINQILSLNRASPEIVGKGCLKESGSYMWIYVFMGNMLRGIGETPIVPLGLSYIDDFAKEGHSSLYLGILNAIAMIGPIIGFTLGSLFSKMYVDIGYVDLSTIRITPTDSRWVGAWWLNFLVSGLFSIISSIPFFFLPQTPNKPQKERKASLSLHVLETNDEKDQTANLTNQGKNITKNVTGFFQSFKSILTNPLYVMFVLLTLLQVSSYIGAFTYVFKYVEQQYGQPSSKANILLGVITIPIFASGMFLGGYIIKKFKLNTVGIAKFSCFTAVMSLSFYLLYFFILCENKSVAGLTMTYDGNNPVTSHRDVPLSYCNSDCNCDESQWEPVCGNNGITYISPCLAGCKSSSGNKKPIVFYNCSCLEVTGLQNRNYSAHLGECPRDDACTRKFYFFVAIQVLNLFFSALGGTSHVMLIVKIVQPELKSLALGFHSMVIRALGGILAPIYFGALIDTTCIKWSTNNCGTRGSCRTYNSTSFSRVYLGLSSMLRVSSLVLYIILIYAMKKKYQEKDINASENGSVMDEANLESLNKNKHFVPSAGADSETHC

[3] = biological target: T2, Solute carrier organic anion transporter family member 1B1; experiment: TP_TRANSPORTER: inhibition of Pravastatin uptake (Pravastatin: 0.5 uM, BMS243887: 50 uM) in OATP-C-expressing 293c18 cells; type: functional, cell-based; details: hek293-ebna
[4] = biological target: T1, Solute carrier organic anion transporter family member 1A1; experiment: TP_TRANSPORTER: inhibition of Taurocholate uptake (Taurocholate: 0.5 uM, BMS243887: 50 uM) in Oatp1-expressing 293c18 cells; type: functional, cell-based; details: human, hek293-ebna
[5] = biological target: T1, Solute carrier organic anion transporter family member 1A1; experiment: TP_TRANSPORTER: inhibition of Taurocholate uptake (Taurocholate: 0.5 uM, Atorvastatin: 50 uM) in Oatp1-expressing 293c18 cells; type: functional, cell-based; details: human, hek293-ebna
[6] = biological target: T1, Solute carrier organic anion transporter family member 1A1; experiment: TP_TRANSPORTER: inhibition of Pravastatin uptake (Pravastatin: 0.5 uM, Atorvastatin: 50 uM) in Oatp1-expressing 293c18 cells; type: functional, cell-based; details: human, hek293-ebna
[7] = biological target: T2, Solute carrier organic anion transporter family member 1B1; experiment: TP_TRANSPORTER: inhibition of Taurocholate uptake (Taurocholate: 0.5 uM, Atorvastatin: 50 uM) in OATP-C-expressing 293c18 cells; type: functional, cell-based; details: hek293-ebna
[8] = biological target: T2, Solute carrier organic anion transporter family member 1B1; experiment: TP_TRANSPORTER: inhibition of Pravastatin uptake (Pravastatin: 0.5 uM, Atorvastatin: 50 uM) in OATP-C-expressing 293c18 cells; type: functional, cell-based; details: hek293-ebna
[9] = biological target: T1, Solute carrier organic anion transporter family member 1A1; experiment: TP_TRANSPORTER: inhibition of Taurocholate uptake (Taurocholate: 0.5 uM, BMS241423: 50 uM) in Oatp1-expressing 293c18 cells; type: functional, cell-based; details: human, hek293-ebna
[10] = biological target: T1, Solute carrier organic anion transporter family member 1A1; experiment: TP_TRANSPORTER: inhibition of Pravastatin uptake (Pravastatin: 0.5 uM, BMS241423: 50 uM) in Oatp1-expressing 293c18 cells; type: functional, cell-based; details: human, hek293-ebna
[11] = biological target: T2, Solute carrier organic anion transporter family member 1B1; experiment: TP_TRANSPORTER: inhibition of Taurocholate uptake (Taurocholate: 0.5 uM, BMS241423: 50 uM) in OATP-C-expressing 293c18 cells; type: functional, cell-based; details: hek293-ebna
[12] = biological target: T2, Solute carrier organic anion transporter family member 1B1; experiment: TP_TRANSPORTER: inhibition of Pravastatin uptake (Pravastatin: 0.5 uM, BMS241423: 50 uM) in OATP-C-expressing 293c18 cells; type: functional, cell-based; details: hek293-ebna
[13] = biological target: T2, Solute carrier organic anion transporter family member 1B1; experiment: (§1) TP_TRANSPORTER: uptake in OATP-C-expressing 293c18 cells; type: functional, cell-based; details: hek293-ebna
[14] = biological target: T1, Solute carrier organic anion transporter family member 1A1; experiment: TP_TRANSPORTER: inhibition of Taurocholate uptake (Taurocholate: 0.5 uM, Lovastatin: 50 uM) in Oatp1-expressing 293c18 cells; type: functional, cell-based; details: human, hek293-ebna
[15] = biological target: T1, Solute carrier organic anion transporter family member 1A1; experiment: TP_TRANSPORTER: inhibition of Pravastatin uptake (Pravastatin: 0.5 uM, Lovastatin: 50 uM) in Oatp1-expressing 293c18 cells; type: functional, cell-based; details: human, hek293-ebna
[16] = biological target: T2, Solute carrier organic anion transporter family member 1B1; experiment: TP_TRANSPORTER: inhibition of Taurocholate uptake (Taurocholate: 0.5 uM, Lovastatin: 50 uM) in OATP-C-expressing 293c18 cells; type: functional, cell-based; details: hek293-ebna
[17] = biological target: T2, Solute carrier organic anion transporter family member 1B1; experiment: TP_TRANSPORTER: inhibition of Pravastatin uptake (Pravastatin: 0.5 uM, Lovastatin: 50 uM) in OATP-C-expressing 293c18 cells; type: functional, cell-based; details: hek293-ebna
[18] = biological target: T1, Solute carrier organic anion transporter family member 1A1; experiment: TP_TRANSPORTER: inhibition of Taurocholate uptake (Taurocholate: 0.5 uM, DHEAS: 50 uM) in Oatp1-expressing 293c18 cells; type: functional, cell-based; details: human, hek293-ebna
[19] = biological target: T1, Solute carrier organic anion transporter family member 1A1; experiment: TP_TRANSPORTER: inhibition of Pravastatin uptake (Pravastatin: 0.5 uM, DHEAS: 50 uM) in Oatp1-expressing 293c18 cells; type: functional, cell-based; details: human, hek293-ebna
[20] = biological target: T1, Solute carrier organic anion transporter family member 1A1; experiment: TP_TRANSPORTER: inhibition of Taurocholate uptake (Taurocholate: 0.5 uM, Simvastatin: 50 uM) in Oatp1-expressing 293c18 cells; type: functional, cell-based; details: human, hek293-ebna
[21] = biological target: T1, Solute carrier organic anion transporter family member 1A1; experiment: TP_TRANSPORTER: inhibition of Pravastatin uptake (Pravastatin: 0.5 uM, Simvastatin: 50 uM) in Oatp1-expressing 293c18 cells; type: functional, cell-based; details: human, hek293-ebna
[22] = substrate: CC[C@H](C)C(=O)O[C@H]1C[C@H](O)C=C2C=C[C@H](C)[C@H](CC[C@@H](O)C[C@@H](O)CC(=O)O)[C@H]21; experiment: TP_TRANSPORTER: uptake in Oatp1-expressing 293c18 cells; type: functional, cell-based, HEK293-EBNA
[23] = substrate: CC[C@H](C)C(=O)O[C@H]1C[C@H](O)C=C2C=C[C@H](C)[C@H](CC[C@@H](O)C[C@@H](O)CC(=O)O)[C@H]21; experiment: as §1; type: functional, cell-based, HEK293-EBNA

CC(C)c1c(C(=O)Nc2ccccc2O)c(-c2ccccc2)c(-c2ccc(F)cc2)n1CC[C@@H](O)C[C@@H](O)CC(=O)O
Activity [1]: inhibitor [+] | Activity [2]: inhibitor [+] | Activity [3]: inhibitor [+] | Activity [4]: inhibitor [+]

CC(C)c1c(C(=O)Nc2ccccc2)c(-c2ccccc2)c(-c2ccc(F)cc2)n1CC[C@@H](O)C[C@@H](O)CC(=O)O [ATORVASTATIN]
Activity [5]: inhibitor [+] | Activity [6]: inhibitor [+] | Activity [7]: inhibitor [+] | Activity [8]: inhibitor [+]

CC(C)c1c(C(=O)Nc2ccc(O)cc2)c(-c2ccccc2)c(-c2ccc(F)cc2)n1CC[C@H](O)C[C@H](O)CC(=O)O [BMS241423]
Activity [9]: inhibitor [+] | Activity [10]: inhibitor [+] | Activity [11]: inhibitor [+] | Activity [12]: inhibitor [+]

N[C@@H](Cc1cc(I)c(Oc2cc(I)c(O)c(I)c2)c(I)c1)C(=O)O [LEVOTHYROXINE]
Activity [13]: substrate [+]

CC[C@H](C)C(=O)O[C@H]1C[C@@H](C)C=C2C=C[C@H](C)[C@H](CC[C@@H]3C[C@@H](O)CC(=O)O3)[C@H]21 [LOVASTATIN]
Activity [14]: inhibitor [+] | Activity [15]: inhibitor [+] | Activity [16]: inhibitor [+] | Activity [17]: inhibitor [+]

C[C@]12CC[C@H](OS(=O)(=O)O)CC1=CC[C@@H]1[C@@H]2CC[C@]2(C)C(=O)CC[C@@H]12 [PRASTERONE SULFURIC ACID]
Activity [18]: inhibitor [+] | Activity [13]: substrate [+] | Activity [19]: inhibitor [+]

CCC(C)(C)C(=O)O[C@H]1C[C@@H](C)C=C2C=C[C@H](C)[C@H](CC[C@@H]3C[C@@H](O)CC(=O)O3)[C@H]21 [SIMVASTATIN]
Activity [20]: inhibitor [+] | Activity [21]: inhibitor [+]

B1: Solute carrier organic anion transporter family member 1A1 (Rattus norvegicus) (protein)
chain: MEETEKKIATQEGRLFSKMKVFLLSLTCACLTKSLSGVYMNSMLTQIERQFDISTSVAGLINGSFEIGNLFFIVFVSYFGTKLHRPVVIGIGCVIMGLGCLLMSLPHFFMGRYEYETTISPTGNLSSNSFLCMENRTQTLKPTQDPAECVKEMKSLMWICVMVGNIIRGIGETPIVPLGISYIEDFAKSENSPLYIGILEMGKVAGPIFGLLLGSYCAQIYVDIGSVNTDDLTITPSDTRWVGAWWIGFLVCAGVNILTSIPFFFLPKALPKKGQQENVAVTKDGKVEKYGGQAREENLGITKDFLTFMKRLFCNPIYMLFILTSVLQVNGFINKFTFLPKYLEQQYGKSTAEAIFLIGVYSLPPICLGYLIGGFIMKKFKITVKKAAYLAFCLSVFEYLLFLCHFMLTCDNAAVAGLTTSYKGVQHQLHVESKVLADCNTRCSCSTNTWDPVCGDNGVAYMSACLAGCKKFVGTGTNMVFQDCSCIQSLGNSSAVLGLCKKGPECANRLQYFLILTIIISFIYSLTAIPGYMVFLRCVKSEEKSLGVGLHTFCIRVFAGIPAPVYFGALIDRTCLHWGTLKCGQRGACRMYDINSFRHIYLGLPIALRGSSYLPAFFILILMRKFQFPGDIDSSATDHTEMMLGEKESEHTDVHGSPQVENDGELKTKL
Km [22]: 30 µM

B2: Solute carrier organic anion transporter family member 1B1 (Homo sapiens) (protein)
chain: MDQNQHLNKTAEAQPSENKKTRYCNGLKMFLAALSLSFIAKTLGAIIMKSSIIHIERRFEISSSLVGFIDGSFEIGNLLVIVFVSYFGSKLHRPKLIGIGCFIMGIGGVLTALPHFFMGYYRYSKETNINSSENSTSTLSTCLINQILSLNRASPEIVGKGCLKESGSYMWIYVFMGNMLRGIGETPIVPLGLSYIDDFAKEGHSSLYLGILNAIAMIGPIIGFTLGSLFSKMYVDIGYVDLSTIRITPTDSRWVGAWWLNFLVSGLFSIISSIPFFFLPQTPNKPQKERKASLSLHVLETNDEKDQTANLTNQGKNITKNVTGFFQSFKSILTNPLYVMFVLLTLLQVSSYIGAFTYVFKYVEQQYGQPSSKANILLGVITIPIFASGMFLGGYIIKKFKLNTVGIAKFSCFTAVMSLSFYLLYFFILCENKSVAGLTMTYDGNNPVTSHRDVPLSYCNSDCNCDESQWEPVCGNNGITYISPCLAGCKSSSGNKKPIVFYNCSCLEVTGLQNRNYSAHLGECPRDDACTRKFYFFVAIQVLNLFFSALGGTSHVMLIVKIVQPELKSLALGFHSMVIRALGGILAPIYFGALIDTTCIKWSTNNCGTRGSCRTYNSTSFSRVYLGLSSMLRVSSLVLYIILIYAMKKKYQEKDINASENGSVMDEANLESLNKNKHFVPSAGADSETHC
Km [23]: 33.7 µM
